From patent EP4810052A2, “HCRHR2 SELECTIVE POLYPEPTIDES” (Gubra A/S, priority 2023, dated 2026) come the findings set out here.

One experiment deals with T1, hCRHR1 (Homo sapiens, UniProt P34998).
T1 sequence (P34998 24-415): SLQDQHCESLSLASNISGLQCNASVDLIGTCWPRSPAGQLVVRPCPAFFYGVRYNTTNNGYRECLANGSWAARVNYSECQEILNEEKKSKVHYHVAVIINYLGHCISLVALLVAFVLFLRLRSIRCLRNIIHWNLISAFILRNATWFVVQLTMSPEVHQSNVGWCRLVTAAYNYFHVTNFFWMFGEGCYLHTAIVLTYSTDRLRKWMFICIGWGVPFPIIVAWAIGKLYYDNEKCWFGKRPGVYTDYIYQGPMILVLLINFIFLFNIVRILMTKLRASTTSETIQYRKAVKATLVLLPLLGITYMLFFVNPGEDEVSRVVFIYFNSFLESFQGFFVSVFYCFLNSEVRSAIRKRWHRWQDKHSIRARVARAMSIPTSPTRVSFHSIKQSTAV
The experiment can be described thus: HTRF cAMP assay, determination of hCRHR1 potency (peptide libraries 5 conc., purified peptides 11 conc.). It counts as cell-based. To be noted: read-out: hCRHR1 pEC50 (converted). An outline of the steps:
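CHO-K1 cells stably expressing human CRHR1, thawed from frozen stocks just before use, were stimulated in suspension with agonist peptides. cAMP was measured by HTRF competitive immunoassay (cryptate anti-cAMP antibody vs d2-cAMP).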

The target of another experiment is T2, hCRHR2 (Homo sapiens, UniProt Q13324).
T2 sequence (Q13324 1-411): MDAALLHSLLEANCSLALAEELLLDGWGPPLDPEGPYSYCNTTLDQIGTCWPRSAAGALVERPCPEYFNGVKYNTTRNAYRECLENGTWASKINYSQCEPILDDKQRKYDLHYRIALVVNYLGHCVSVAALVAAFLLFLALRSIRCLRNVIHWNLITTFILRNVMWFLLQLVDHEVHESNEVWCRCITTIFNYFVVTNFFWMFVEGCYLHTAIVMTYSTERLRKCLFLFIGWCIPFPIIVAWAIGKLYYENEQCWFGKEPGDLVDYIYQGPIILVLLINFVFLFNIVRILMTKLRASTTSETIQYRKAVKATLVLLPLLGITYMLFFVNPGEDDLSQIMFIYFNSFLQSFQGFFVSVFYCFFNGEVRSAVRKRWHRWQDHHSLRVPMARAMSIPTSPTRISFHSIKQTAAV
The experiment can be described thus: HTRF cAMP assay, determination of hCRHR2 potency (peptide libraries 5 conc., purified peptides 11 conc.). The class given is cell-based. To be noted: read-out: hCRHR2 pEC50 (converted). An outline of the steps:
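Potency was read as cAMP accumulation in a stable CHO-K1 line expressing human CRHR2, used in suspension right after thawing. Detection relied on energy transfer from antibody-bound cryptate to d2-cAMP.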

The mark [1] stands for this setting: Table 4, library peptides having X^38 = Nle.
Setting [2] is: Table 3, matched molecular pairs X^38 L vs Nle, peptide library of Example 4.

Each structure is given as a SMILES string. Like-named read-outs stand apart in the source and are kept apart here. Starred links: 1 amine or outer side, 2 acyl side, 3 side chain; linkers in the order of their positions; H or OH if unused. Non-standard residues stand in square brackets, D forms with d. Residues, ends and D or L forms follow the SMILES beside them. Groups on a side chain read outwards from the residue. *: point of attachment. C20 diacid = O=C(O)CCCCCCCCCCCCCCCCCCC(=O)*; γGlu = O=C(O)[C@H](CCC(=O)[*:2])N[*:1]; NMeI = CC[C@H](C)[C@H](NC)C(=O)O; Nle = CCCC[C@H](N)C(=O)O; AEEA = NCCOCCOCC(=O)O; Aib = CC(C)(N)C(=O)O

Take `CCCC[C@H](NC(=O)[C@@H](NC(=O)[C@H](CCC(=O)O)NC(=O)C(C)(C)NC(=O)[C@H](CC(N)=O)NC(=O)[C@@H](NC(=O)[C@H](CCCCNC(=O)COCCOCCNC(=O)COCCOCCNC(=O)CC[C@H](NC(=O)CC[C@H](NC(=O)CCCCCCCCCCCCCCCCCCC(=O)O)C(=O)O)C(=O)O)NC(=O)[C@H](C)NC(=O)[C@H](CCC(N)=O)NC(=O)[C@H](CCC(=O)O)NC(=O)[C@H](CCCNC(=N)N)NC(=O)[C@H](C)NC(=O)[C@H](C)NC(=O)[C@H](CCCNC(=N)N)NC(=O)[C@H](C)NC(=O)[C@H](CCCNC(=N)N)NC(=O)[C@H](C)NC(=O)[C@H](CCC(N)=O)NC(=O)[C@H](CC(C)C)NC(=O)[C@H](CC(C)C)NC(=O)[C@H](CC(C)C)NC(=O)[C@@H](NC(=O)[C@H](CCC(N)=O)NC(=O)[C@H](CC(C)C)NC(=O)[C@H](CC(C)C)NC(=O)CNC(=O)[C@@H](NC(=O)[C@@H]1CCCN1C(=O)[C@@H](NC(=O)[C@H](CC(=O)O)NC(=O)[C@H](CC(C)C)NC(=O)[C@H](CO)NC(=O)[C@H](CC(C)C)NC(=O)[C@@H](NC(=O)[C@@H](NC)[C@@H](C)CC)C(C)C)C(C)C)[C@@H](C)CC)[C@@H](C)CC)[C@@H](C)O)[C@@H](C)CC)C(=O)N[C@@H](C)C(=O)N[C@@H](CCC(=O)O)C(=O)N[C@H](C(N)=O)C(C)C` [compound 229] (H-[NMeI]VLSLDVPIGLLQILLLQARARAAREQAK([AEEA-AEEA-γGlu-γGlu-C20 diacid])TN[Aib]EI[Nle]AEV-NH2): the EC50 on hCRHR1 (setting [1]) was 6310 nM; on hCRHR2 (setting [1]), 0.0794 nM.
As to `CC[C@H](C)[C@H](N)C(=O)N[C@H](C(=O)N[C@@H](CC(C)C)C(=O)N[C@@H](CO)C(=O)N[C@@H](CC(C)C)C(=O)N[C@@H](CC(=O)O)C(=O)N[C@H](C(=O)N1CCC[C@H]1C(=O)N[C@H](C(=O)NCC(=O)N[C@@H](CC(C)C)C(=O)N[C@@H](CC(C)C)C(=O)N[C@@H](CCC(N)=O)C(=O)N[C@H](C(=O)N[C@@H](CC(C)C)C(=O)N[C@@H](CC(C)C)C(=O)N[C@@H](CCC(=O)O)C(=O)N[C@@H](CCC(N)=O)C(=O)N[C@@H](C)C(=O)N[C@@H](CCCNC(=N)N)C(=O)N[C@@H](C)C(=O)N[C@@H](CCCNC(=N)N)C(=O)N[C@@H](C)C(=O)N[C@@H](C)C(=O)N[C@@H](CCCNC(=N)N)C(=O)N[C@@H](CCC(N)=O)C(=O)N[C@@H](CCC(N)=O)C(=O)N[C@@H](C)C(=O)N[C@@H](CCCCNC(=O)COCCOCCNC(=O)COCCOCCNC(=O)CC[C@H](NC(=O)CC[C@H](NC(=O)CCCCCCCCCCCCCCCCCCC(=O)O)C(=O)O)C(=O)O)C(=O)N[C@H](C(=O)N[C@@H](CC(N)=O)C(=O)N[C@@H](C)C(=O)N[C@@H](CCC(=O)O)C(=O)N[C@H](C(=O)N[C@@H](CC(C)C)C(=O)N[C@@H](C)C(=O)N[C@@H](CCC(=O)O)C(=O)N[C@H](C(N)=O)[C@@H](C)CC)[C@@H](C)CC)[C@@H](C)O)[C@@H](C)CC)[C@@H](C)CC)C(C)C)C(C)C` [SEQ ID NO: 27] (H-IVLSLDVPIGLLQILLEQARARAARQQAK([AEEA-AEEA-γGlu-γGlu-C20 diacid])TNAEILAEI-NH2), the EC50 at hCRHR1 (setting [2]) is 63100 nM; at hCRHR2 (setting [2]), 0.316 nM.
As to `CCCC[C@H](NC(=O)[C@@H](NC(=O)[C@H](CCC(=O)O)NC(=O)C(C)(C)NC(=O)[C@H](CC(N)=O)NC(=O)[C@@H](NC(=O)[C@H](CCCCNC(=O)COCCOCCNC(=O)COCCOCCNC(=O)CC[C@H](NC(=O)CC[C@H](NC(=O)CCCCCCCCCCCCCCCCCCC(=O)O)C(=O)O)C(=O)O)NC(=O)[C@H](C)NC(=O)[C@H](CCC(N)=O)NC(=O)[C@H](CCC(=O)O)NC(=O)[C@H](CCCNC(=N)N)NC(=O)[C@H](C)NC(=O)[C@H](C)NC(=O)[C@H](CCCNC(=N)N)NC(=O)[C@H](C)NC(=O)[C@H](CCCNC(=N)N)NC(=O)[C@H](C)NC(=O)[C@H](CCC(N)=O)NC(=O)[C@H](Cc1c[nH]cn1)NC(=O)[C@H](CC(C)C)NC(=O)[C@H](CC(C)C)NC(=O)[C@@H](NC(=O)[C@H](CCC(N)=O)NC(=O)[C@H](CC(C)C)NC(=O)[C@H](CC(C)C)NC(=O)CNC(=O)[C@@H](NC(=O)[C@@H]1CCCN1C(=O)[C@@H](NC(=O)[C@H](CC(=O)O)NC(=O)[C@H](CC(C)C)NC(=O)[C@H](CO)NC(=O)[C@H](CC(C)C)NC(=O)[C@@H](NC(=O)[C@@H](NC)[C@@H](C)CC)C(C)C)C(C)C)[C@@H](C)CC)[C@@H](C)CC)[C@@H](C)O)[C@@H](C)CC)C(=O)N[C@@H](C)C(=O)N[C@@H](CCC(=O)O)C(=O)N[C@H](C(N)=O)C(C)C` [compound 207] (H-[NMeI]VLSLDVPIGLLQILLHQARARAAREQAK([AEEA-AEEA-γGlu-γGlu-C20 diacid])TN[Aib]EI[Nle]AEV-NH2), the EC50 on hCRHR1 (setting [1]) is 1000 nM; at hCRHR2 (setting [1]), 0.0398 nM.
On the same counts, the results for `CCCC[C@H](NC(=O)[C@@H](NC(=O)[C@H](CCC(=O)O)NC(=O)[C@H](C)NC(=O)[C@H](CC(N)=O)NC(=O)C(C)(C)NC(=O)[C@H](CCCCNC(=O)COCCOCCNC(=O)COCCOCCNC(=O)CC[C@H](NC(=O)CC[C@H](NC(=O)CCCCCCCCCCCCCCCCCCC(=O)O)C(=O)O)C(=O)O)NC(=O)[C@H](C)NC(=O)[C@H](CCC(N)=O)NC(=O)[C@H](CCC(=O)O)NC(=O)[C@H](CCCNC(=N)N)NC(=O)[C@H](C)NC(=O)[C@H](C)NC(=O)[C@H](CCCNC(=N)N)NC(=O)[C@H](C)NC(=O)[C@H](CCCNC(=N)N)NC(=O)[C@H](C)NC(=O)[C@H](CCC(N)=O)NC(=O)[C@H](CC(C)C)NC(=O)[C@H](CC(C)C)NC(=O)[C@H](CC(C)C)NC(=O)[C@@H](NC(=O)[C@H](CCC(N)=O)NC(=O)[C@H](CC(C)C)NC(=O)[C@H](CC(C)C)NC(=O)CNC(=O)[C@@H](NC(=O)[C@@H]1CCCN1C(=O)[C@@H](NC(=O)[C@H](CC(=O)O)NC(=O)[C@H](CC(C)C)NC(=O)[C@H](CO)NC(=O)[C@H](CC(C)C)NC(=O)[C@@H](NC(=O)[C@@H](NC)[C@@H](C)CC)C(C)C)C(C)C)[C@@H](C)CC)[C@@H](C)CC)[C@@H](C)CC)C(=O)N[C@@H](C)C(=O)N[C@@H](CCC(=O)O)C(=O)N[C@H](C(N)=O)C(C)C` [compound 235] (H-[NMeI]VLSLDVPIGLLQILLLQARARAAREQAK([AEEA-AEEA-γGlu-γGlu-C20 diacid])[Aib]NAEI[Nle]AEV-NH2) are 158000 nM and 0.126 nM.
`CCCC[C@H](NC(=O)[C@@H](NC(=O)[C@H](CCC(=O)O)NC(=O)C(C)(C)NC(=O)[C@H](CC(N)=O)NC(=O)[C@@H](NC(=O)[C@H](CCCCNC(=O)COCCOCCNC(=O)COCCOCCNC(=O)CC[C@H](NC(=O)CC[C@H](NC(=O)CCCCCCCCCCCCCCCCCCC(=O)O)C(=O)O)C(=O)O)NC(=O)[C@H](C)NC(=O)[C@H](CCC(N)=O)NC(=O)[C@H](CCC(=O)O)NC(=O)[C@H](CCCNC(=N)N)NC(=O)[C@H](C)NC(=O)[C@H](C)NC(=O)[C@H](CCCNC(=N)N)NC(=O)[C@H](C)NC(=O)[C@H](CCCNC(=N)N)NC(=O)[C@H](C)NC(=O)[C@H](CCC(N)=O)NC(=O)[C@H](CCCCN)NC(=O)[C@H](CC(C)C)NC(=O)[C@H](CC(C)C)NC(=O)[C@@H](NC(=O)[C@H](CCC(N)=O)NC(=O)[C@H](CC(C)C)NC(=O)[C@H](CC(C)C)NC(=O)CNC(=O)[C@@H](NC(=O)[C@@H]1CCCN1C(=O)[C@@H](NC(=O)[C@H](CC(=O)O)NC(=O)[C@H](CC(C)C)NC(=O)[C@H](CO)NC(=O)[C@H](CC(C)C)NC(=O)[C@@H](NC(=O)[C@@H](NC)[C@@H](C)CC)C(C)C)C(C)C)[C@@H](C)CC)[C@@H](C)CC)[C@@H](C)O)[C@@H](C)CC)C(=O)N[C@@H](C)C(=O)N[C@@H](CCC(=O)O)C(=O)N[C@H](C(N)=O)C(C)C` [compound 230] (H-[NMeI]VLSLDVPIGLLQILLKQARARAAREQAK([AEEA-AEEA-γGlu-γGlu-C20 diacid])TN[Aib]EI[Nle]AEV-NH2): the EC50 is 31600 nM at hCRHR1 (setting [1]) and 0.0501 nM at hCRHR2 (setting [1]).
